Experimental data taken from patent US8227414B2 ([…].R.L., priority 2005, dated 2012).
Like-named read-outs stand apart in the source and are kept apart here. Ends that are not written are not given here. Peptide text beside a SMILES is read from it.

What was measured:
mouse vas deferens = assay: Inhibition of the twitch induced by electrical stimulation of mouse vas deferens; type: cell-based; conditions: for Inhibition of the twitch induced by electric stimulation, Antagonist pA2: against N/OFQ; for Functional behaviour in mouse vas deferens: compared with N/OFQ maximal effect
Procedure: The compounds were tested in vitro on Hamster oocytes membranes expressing the human recombinant NOP receptor (CHOhNoP) (receptor binding experiments and GTP?S binding stimulation experiments) and on the mouse vas deferens after electrical stimulation.

mice [1] = assay: Food intake in fed mice; type: in vivo, mouse
Excerpt: 2) measurement of food intake in fed animals, as described by Rizzi et al. (National Congress of the Italian Society of Neuroscience and joint Italian-Swedish Neuroscience Meetings, Ischia (Napoli) 1-4 Oct. 2005);

mice [2] = assay: Spontaneous locomotor activity in mice; type: in vivo, mouse
Procedure: Control animals received one i.c.v. injection of saline (2 μl/mouse). Each point represents the mean±s.e.m. of at least 4 experiments.
3) assay for measurement of spontaneous locomotor activity, as described by Rizzi et al., (Naunyn Schmiedebergs Arch Pharmacol 363, 161-165, 2001.

[3] = Metabolic stability in mouse plasma; type: in vitro ADME; conditions: for half-life at 6 μg/μl: male, Swiss, mouse, plasma, pH 7.4, mouse plasma; for Plasma T½ compared to N/OFQ: mouse plasma
Procedure: (§1) Plasma and brain tissue samples were obtained from male Swiss mice (Morini, Reggio Emilia, Italy, 25-30 g). The animal, sacrificed by ether anesthesia, was perfused with physiological heparin solution injected through a needle placed in the left ventricle. Blood was then withdrawn and was centrifuged at 14000×g for 2 minutes at room temperature. After separation from the pellet, the plasma was aliquoted and stocked at −80° C. After blood withdrawal, the animal was perfused further with a physiological solution for 2 minutes before brain removal. The brain tissue was homogenized in 5 vol. (w/v) of Tris/HCl (50 mM, pH 7.4, 0° C.) with a ultra-Turrax (Janke Kunkel, Staufen, FRG) 3 times for 15 seconds each. The supernatant obtained by centrifugation (3000×g for 15 min at 4° C.) was decanted and then stocked at −80° C.
(§2) The protein content of the preparations, determined by the Bradford method, as described in Anal. Biochem., 72, 248-254, 1976, was approximately 8 μg/μl for the brain homogenate and 17 μg/μl for the plasma
(§3) An aliquot of 100 μl solution of each peptide (3 mg/500 μl Tris) was incubated (at a final concentration of […]) with brain homogenate or plasma (450 μl) in a total volume of 1 ml, containing Tris/HCl 50 mM pH 7.4 buffer. Incubation of the aliquots was carried out at 37° C. for various periods up to 240 min. At different incubation times, an aliquot of the solution (100 μl) was removed and the degradation was blocked by addition of 4.5% TFA solution (200 μl). After centrifugation (3000 rpm for 15 minutes) an aliquot (100 μl) of supernatant was injected into RP-HPLC. HPLC analysis was performed in a Kromasil 100-5C18 column (4.6×250 mm) using a Beckman System Gold chromatography system equipped with a variable wave length UV detector.
(§4) The experimental conditions for elution included a gradient analysis with water (solvent A) and acetonitrile (solvent B), both containing 0.1% TFA, at a flow rate of 0.7 ml/min. The following protocol was used for gradient analysis, selected on the basis of the physico-chemical characteristics of the analyte: linear gradient from 5% to 40% B in 20 minutes; linear gradient from 40% to 60% B in 5 minutes; linear gradient from 60% to 5% B in 5 minutes. The eluate was monitored at 220 nm. The half life (T1/2) was obtained by linear regression with the least square method, diagramming the peak areas of each derivative as a function of the incubation times, using at least five points for each analysis.

[4] = Metabolic stability in mouse brain homogenate; type: in vitro ADME; conditions: male, Swiss, pH 7.4, mouse brain homogenate, 37° C., mean±standard deviation, read-out: T½ Brain
Procedure: as §1, §2, §3, §4

[5] = biological target: T1, human recombinant NOP receptor (Homo sapiens, UniProt P41146); assay: Stimulation of GTP?S binding on CHOhNOP membranes; type: biochemical; conditions: for Functional behaviour in GTP?S binding: compared with N/OFQ maximal effect
T1 construct: expressed in transfected cells; host or cells: CHO cells (CHOhNOP), membranes

[6] = biological target: T2, human recombinant opioid receptor mu (MOP) (Homo sapiens, UniProt P35372); assay: Receptor binding on CHO membranes, [3H]-Diprenorphine
T2 construct: expressed in transfected cells; host or cells: CHO cells, membranes

[7] = biological target: T3, human recombinant opioid receptor delta (DOP) (Homo sapiens, UniProt P41143); assay: as above
T3 construct: expressed in transfected cells; host or cells: CHO cells, membranes

[8] = biological target: T1, human recombinant NOP receptor; assay: Receptor binding, displacement of tritiated N/OFQ on CHOhNOP membranes; conditions: Receptor binding PKi, Table 1; membrane of CHOhNOP cells; tritiated N/OFQ
[9] = system: vas deferens of knockout mice for the NOP receptor (NOP−/−); assay: Electrically stimulated vas deferens from NOP receptor knockout mice; type: cell-based, mouse; conditions: Table 2
[10] = biological target: T4, human recombinant NOP receptors expressed in HEK293 cells (Homo sapiens, UniProt P41146); conditions: Okada et al. 2000; cited from earlier work
T4 construct: host or cells: HEK293 cells

[11] = Table 2, wild type (NOP+/+) mice
[12] = 37° C., mean±standard deviation, read-out: T½ Plasma

T1 sequence (P41146 whole entry): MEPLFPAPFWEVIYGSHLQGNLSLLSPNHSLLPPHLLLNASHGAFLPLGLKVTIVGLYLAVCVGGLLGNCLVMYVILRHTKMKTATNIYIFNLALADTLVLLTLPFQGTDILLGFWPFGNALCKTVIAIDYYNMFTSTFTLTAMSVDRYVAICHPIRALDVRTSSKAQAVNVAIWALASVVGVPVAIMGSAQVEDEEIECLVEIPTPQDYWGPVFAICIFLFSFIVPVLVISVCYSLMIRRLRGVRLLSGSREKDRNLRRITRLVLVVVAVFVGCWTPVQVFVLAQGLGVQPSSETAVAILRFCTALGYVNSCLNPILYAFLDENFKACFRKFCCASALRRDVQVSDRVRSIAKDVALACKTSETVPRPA
T2 sequence (P35372 whole entry): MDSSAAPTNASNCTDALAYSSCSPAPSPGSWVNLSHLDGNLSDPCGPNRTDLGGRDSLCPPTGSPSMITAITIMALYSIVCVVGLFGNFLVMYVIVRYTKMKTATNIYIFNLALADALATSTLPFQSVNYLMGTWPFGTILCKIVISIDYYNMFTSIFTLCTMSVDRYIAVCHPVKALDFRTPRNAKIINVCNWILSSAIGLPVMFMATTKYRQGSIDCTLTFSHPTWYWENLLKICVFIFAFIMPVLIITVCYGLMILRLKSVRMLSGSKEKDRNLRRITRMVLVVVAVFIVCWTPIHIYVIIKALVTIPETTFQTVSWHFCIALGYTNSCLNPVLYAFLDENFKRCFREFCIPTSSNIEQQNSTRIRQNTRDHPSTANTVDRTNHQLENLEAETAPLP
T4 sequence (P41146 whole entry): as the sequence (P41146 whole entry) above
T3 sequence (P41143 whole entry): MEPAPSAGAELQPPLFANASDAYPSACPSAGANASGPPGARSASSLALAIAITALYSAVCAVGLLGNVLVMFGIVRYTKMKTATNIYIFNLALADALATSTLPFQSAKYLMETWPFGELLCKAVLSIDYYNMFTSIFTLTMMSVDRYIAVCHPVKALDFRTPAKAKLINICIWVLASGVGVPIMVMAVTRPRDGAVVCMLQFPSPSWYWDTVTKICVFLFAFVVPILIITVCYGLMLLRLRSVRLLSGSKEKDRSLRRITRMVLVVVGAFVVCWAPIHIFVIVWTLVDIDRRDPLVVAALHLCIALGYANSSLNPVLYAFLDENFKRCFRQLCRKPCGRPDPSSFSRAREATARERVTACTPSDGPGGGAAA

CC(C)C[C@H](NC(=O)[C@H](CCCCN)NC(=O)[C@H](CCCNC(=N)N)NC(=O)[C@H](C)NC(=O)[C@H](CO)NC(=O)[C@H](CCCCN)NC(=O)[C@H](CCCNC(=N)N)NC(=O)[C@H](C)NC(=O)CNC(=O)[C@@H](NC(=O)[C@H](Cc1ccccc1)NC(=O)CNC(=O)CNC(=O)[C@@H](N)Cc1ccccc1)[C@@H](C)O)C(=O)N[C@@H](C)C(=O)N[C@@H](CC(N)=O)C(=O)N[C@@H](CCC(N)=O)C(=O)O [N/OFQ, reference compound]
Inhibition of the twitch induced by electric stimulation, Agonist Emax (mouse vas deferens; Table 1): −84 ± 3% | Inhibition of the twitch induced by electric stimulation, Agonist pEC50 (mouse vas deferens; Table 1): 7.39 | Emax NOP+/+ (mouse vas deferens; [11]): 84 ± 4% | Hyperphagic effects in NOP−/− mice (mice [1]; NOP−/− mice): absent | Effect on food intake (mice [1]; fed mice, equi-effective doses): significant increase | Time after i.c.v. injection at which locomotor effect ended (mice [2]; 10 nmol i.c.v.): 60 min | Effect on spontaneous locomotor activity (mice [2]; i.c.v., N/OFQ 10 nmol, UFP-112 0.1 nmol): inhibited the locomotor activity | half-life at 6 μg/μl [3, 12]: 1.07 ± 0.0167 h | half-life at 6 μg/μl ([3]; read-out: Half life in the plasma (converted)): ~1 h | half-life at 6 μg/μl [4]: ~0.05 h

C[C@H](NC(=O)[C@H](CO)NC(=O)[C@H](CCCCN)NC(=O)[C@H](CCCNC(=N)N)NC(=O)C(C)(C)NC(=O)CNC(=O)[C@@H](NC(=O)[C@H](Cc1ccccc1)NC(=O)CNC(=O)CNC(=O)CNCc1ccccc1)[C@@H](C)O)C(=O)N[C@@H](CCCNC(=N)N)C(=O)N[C@@H](CCCCN)C(=O)N[C@@H](CCCNC(=N)N)C(=O)N[C@@H](CCCCN)C(=O)N[C@@H](CC(N)=O)C(=O)N[C@@H](CCC(N)=O)C(N)=O [UFP-111, [Nphe^1,Aib^7,Arg^14,Lys^15]N/OFQ-NH2]
Kb [5]: 2.09 nM | Stimulation upon binding GTP?S, Agonist pEC50 ([5]; Table 1, membrane of CHOhNOP cells): Inactive | Functional behaviour in GTP?S binding [5]: competitive antagonist | Inhibition of the twitch induced by electric stimulation, Agonist pEC50 (mouse vas deferens; Table 1): Inactive | Inhibition of the twitch induced by electric stimulation, Antagonist pA2 (mouse vas deferens; Table 1): 7.46 | Functional behaviour in mouse vas deferens (mouse vas deferens): competitive antagonist | Ki [6]: > 10000 nM | Ki [7]: > 10000 nM | half-life at 6 μg/μl [3, 12]: 2.28 ± 0.0667 h | Plasma T½ compared to N/OFQ [3]: about twice as long | half-life at 6 μg/μl [4]: 0.183 ± 0.0317 h

C[C@H](NC(=O)[C@H](CO)NC(=O)[C@H](CCCCN)NC(=O)[C@H](CCCNC(=N)N)NC(=O)C(C)(C)NC(=O)CNC(=O)[C@@H](NC(=O)[C@H](Cc1ccc(F)cc1)NC(=O)CNC(=O)CNC[C@@H](N)Cc1ccccc1)[C@@H](C)O)C(=O)N[C@@H](CCCNC(=N)N)C(=O)N[C@@H](CCCCN)C(=O)N[C@@H](CCCNC(=N)N)C(=O)N[C@@H](CCCCN)C(=O)N[C@@H](CC(N)=O)C(=O)N[C@@H](CCC(N)=O)C(N)=O [UFP-113, [Phe^1?(CH2—NH)Gly^2,(pF)Phe^4,Aib^7,Arg^14,Lys^15]N/OFQ-NH2] (HELM PEPTIDE1{[N[C@H](CNCC(=O)[*:2])Cc1ccccc1].G.[O=C([C@H](Cc1ccc(F)cc1)N[*:1])[*:2]].T.G.[Aib].R.K.S.A.R.K.R.K.N.Q.[am]}$$$$V2.0)
Ki [8]: 0.055 nM | EC50 [5]: 0.191 nM | Functional behaviour in GTP?S binding [5]: partial NOP receptor agonist | Emax ([5]; read-out: Stimulation upon binding GTP?S, Agonist Emax): 79 ± 3% | Inhibition of the twitch induced by electric stimulation, Agonist pEC50 (mouse vas deferens; Table 1): Variable agonist effects | Inhibition of the twitch induced by electric stimulation, Antagonist pA2 (mouse vas deferens; Table 1): 9.28 | Functional behaviour in mouse vas deferens (mouse vas deferens): partial NOP receptor agonist | half-life at 6 μg/μl [3, 12]: 1.83 ± 0.167 h | Plasma T½ compared to N/OFQ [3]: about twice as long | half-life at 6 μg/μl [4]: 0.205 ± 0.0133 h

DPDPE [[D-Pen^2,D-Pen^5]-Enkephalin, reference compound]
Emax NOP+/+ (mouse vas deferens; [11]): 93 ± 3% | pEC50 NOP+/+ (mouse vas deferens; [11]): 8.40 | Emax NOP−/− [9]: 91 ± 5% | pEC50 NOP−/− [9]: 8.20

N/OFQ-NH2 (FGGFTGARKSARKLANQ-NH2; UniProt Q13519 130-146, looked up) [reference compound]
Emax (mouse vas deferens): 93 ± 2%

[(aMe)D/L-Leu^7]N/OFQ-NH2 [[(aMe)D/L-Leu^7]N/OFQ-NH2 (diastereomer 1)]
Emax (mouse vas deferens; Table 4): 84 ± 1% | pEC50 (CL 95%) (mouse vas deferens; Table 4): 7.33 (7.04-7.62)

[(aMe)D/L-Leu^7]N/OFQ-NH2 [[(aMe)D/L-Leu^7]N/OFQ-NH2 (diastereomer 2)]
Emax (mouse vas deferens; Table 4): 95 ± 2% | pEC50 (CL 95%) (mouse vas deferens; Table 4): 7.12 (7.02-7.22)

[(aMe)D/L-Leu^11]N/OFQ-NH2
Emax (mouse vas deferens; Table 4): 91 ± 4% | pEC50 (CL 95%) (mouse vas deferens; Table 4): 7.87 (7.67-8.07)

[(aMe)D/L-Val^7]N/OFQ-NH2 [[(aMe)D/L-Val^7]N/OFQ-NH2 (diastereomer 1)]
Emax (mouse vas deferens; Table 4): 88 ± 1% | pEC50 (CL 95%) (mouse vas deferens; Table 4): 7.26 (7.00-7.52)

[(aMe)D/L-Val^7]N/OFQ-NH2 [[(aMe)D/L-Val^7]N/OFQ-NH2 (diastereomer 2)]
Emax (mouse vas deferens; Table 4): 95 ± 1% | pEC50 (CL 95%) (mouse vas deferens; Table 4): 7.56 (7.34-7.78)

[(aMe)D/L-Val^11]N/OFQ-NH2 [[(aMe)D/L-Val^11]N/OFQ-NH2 (diastereomer 1)]
Emax (mouse vas deferens; Table 4): 93 ± 2% | pEC50 (CL 95%) (mouse vas deferens; Table 4): 7.71 (7.37-8.05)

[(aMe)D/L-Val^11]N/OFQ-NH2 [[(aMe)D/L-Val^11]N/OFQ-NH2 (diastereomer 2)]
Emax (mouse vas deferens; Table 4): 86 ± 4% | pEC50 (CL 95%) (mouse vas deferens; Table 4): 7.83 (7.67-7.99)

[Ac3c^7]N/OFQ-NH2
Emax (mouse vas deferens; Table 4): 98 ± 1% | pEC50 (CL 95%) (mouse vas deferens; Table 4): 7.08 (6.82-7.34)

[Ac3c^11]N/OFQ-NH2
Emax (mouse vas deferens; Table 4): 91 ± 4% | pEC50 (CL 95%) (mouse vas deferens; Table 4): 7.78 (7.62-7.94)

[Ac5c^7]N/OFQ-NH2
Emax (mouse vas deferens; Table 4): 98 ± 1% | pEC50 (CL 95%) (mouse vas deferens; Table 4): 7.60 (7.40-7.80)

[Ac5c^11]N/OFQ-NH2
Emax (mouse vas deferens; Table 4): 89 ± 4% | pEC50 (CL 95%) (mouse vas deferens; Table 4): 8.08 (7.93-8.23)

[Ac6c^7]N/OFQ-NH2
Emax (mouse vas deferens; Table 4): 87 ± 1% | pEC50 (CL 95%) (mouse vas deferens; Table 4): 7.20 (6.86-7.54)

[Ac6c^11]N/OFQ-NH2
Emax (mouse vas deferens; Table 4): 89 ± 4% | pEC50 (CL 95%) (mouse vas deferens; Table 4): 7.79 (7.53-8.05)

[Arg^14,Lys^15]N/OFQ
Potency relative to N/OFQ [10]: 17 fold

[Deg^7]N/OFQ-NH2
Emax (mouse vas deferens; Table 4): 89 ± 2% | pEC50 (CL 95%) (mouse vas deferens; Table 4): 7.91 (7.53-8.27)

[Deg^11]N/OFQ-NH2
Emax (mouse vas deferens; Table 4): 87 ± 4% | pEC50 (CL 95%) (mouse vas deferens; Table 4): 7.75 (7.43-7.89)

[Dpg^7]N/OFQ-NH2
Emax (mouse vas deferens; Table 4): 91 ± 4% | pEC50 (CL 95%) (mouse vas deferens; Table 4): 7.90 (7.71-8.11)

[Dpg^11]N/OFQ-NH2
Emax (mouse vas deferens; Table 4): 86 ± 3% | pEC50 (CL 95%) (mouse vas deferens; Table 4): 7.53 (7.17-8.04)

[Iva^7]N/OFQ-NH2 [[Iva^7]N/OFQ-NH2 (diastereomer 1)]
Emax (mouse vas deferens; Table 4): 91 ± 4% | pEC50 (CL 95%) (mouse vas deferens; Table 4): 7.83 (7.74-7.92)

[Iva^7]N/OFQ-NH2 [[Iva^7]N/OFQ-NH2 (diastereomer 2)]
Emax (mouse vas deferens; Table 4): 88 ± 3% | pEC50 (CL 95%) (mouse vas deferens; Table 4): 7.62 (7.32-7.92)

[Nphe1,Arg14,Lys15]N/OFQ-NH2 (XGGFTGARKSARKRKNQ; Nphe1, C-terminal amide; Synthetized. Featured in patent as UFP-101, ref. Calòet al. Br J Pharmacol 136, 303-311, 2002) [reference compound]
pA2 in competition with the endogenous agonist N/OFQ (mouse vas deferens; agonist N/OFQ): 6.91 | pA2 in competition with UFP-112 (mouse vas deferens; agonist UFP-112): 6.81
